Measured values as given in patent US7915276B2, “Berberrubine derivatives having antifungal activities” (priority 2006, dated 2011).

What was measured:
[1] = target: T1, chitin synthase 2 of Saccharomyces cerevisiae ECY38-38A(pAS6) (Saccharomyces cerevisiae, UniProt P14180); test: In vitro enzyme assay for chitin synthase 2 of Saccharomyces cerevisiae (enzyme 2); assay type: biochemical; conditions: relative to polyoxin D (50% inhibitory activity = value 5)
T1 construct: made in house; host or cells: Saccharomyces cerevisiae ECY38-38A (chs1-23 chs2::LEU2 cal1/csd2) carrying plasmid pAS6, grown in galactose medium; 130,000 x g membrane pellet
Experimental: Crude enzyme was prepared using the recombinant Saccharomyces cerevisiae ECY38-38A(pAS6) (MATa chs1-23 chs2::LEU2 cal 1/csd 2 ura 3-52 trp 1-1 leu 2-2 pAS6) strain, which can produce the chitin synthase 2 only. The strain was inoculated with the YPG culture medium (1% yeast extract, 2% peptone, 2% galactose) and cultured at 30° C. overnight. Then, it was inoculated with a fresh YPG culture medium and cultured for 15-17 hours until the Absorbance at 550 nm reaches 1.0. The cells were collected and suspended in 50 mM Tris-HCl (pH 7.5) buffer containing 5 mM magnesium acetate. After centrifugation at 8,000×g for 10 minutes, the pellets were suspended in the same Tris-HCl buffer solution. The suspension was divided into aliquots in 50 mL conical test tubes. After adding the glass beads, the cells were disrupted by vigorously vortexing with an interval of 30 seconds. The cell residues were removed by centrifuging at 3,000×g for 5 minutes. The supernatant was ultra-centrifuged at 130,000×g for 1 hour. The resultant pellets were collected and suspended in 50 mM Tris-HCl (pH 7.5) containing 33% glycerol, to a final volume of 1.6 mg/g (wet weight) of yeast used. The suspension was divided into aliquots and kept at −70° C. until it is used.
(§1) The inhibitory activities against the chitin synthase 1 of Candida albicans chs2 Δ chs 3 Δ (abbreviated as ‘enzyme 1’) and the chitin synthase 2 of Saccharomyces cerevisiae ECY38-38A(pAS6)(abbreviated as ‘enzyme 2’) was examined for compound Nos. 1 to 70 compound and polyoxin D, a positive control compound.
(§2) The inhibitory activity against the chitin synthase 1 prepared from Candida albicans and the chitin synthase 2 prepared from Saccharomyces cerevisiae were examined as follows. A reaction mixture containing 32 mM Tris-HCl (pH 7.5), 2 mM cobalt acetate, 1.1 mM UDP-[U-^14C]-N-acetyl-d-glucosamine (GlcNAc) (400,000 cpm/μmol), 2 μL of trypsin (0.75 mg/mL), 20 μL of each crude enzyme and 14 μL of each test sample was kept at 30° C. for 15 minutes to activate the enzyme. Then, 2 μL of trypsin inhibitor (1.5 mg/mL) was added and the mixture was kept in an ice bath for 10 minutes to deactivate trypsin. 2 μL of 0.8 M N-acetyl-d-glucosamine was added to a total volume of 50 μL and reaction was performed at 30° C. for 90 minutes. The reaction was stopped using 1 mL of 10% TCA solution and the reaction solution was filtered with a GF/C filter and dried at room temperature. After adding 3 mL of a scintillation cocktail solution, the amount of isotopes was measured using a liquid scintillation counter. Percentage inhibition against each enzyme was calculated by the following Equation 1.
(§3) The control group was not added with a test sample in the reaction mixture and that of the untreated group contained neither the test sample nor the crude enzyme.
(§4) A 50% inhibitory activity of polyoxin D against the enzyme was given the value 5. A compound having the same inhibitory activity as that of polyoxin D at the same concentration was given the value 5. Compounds having the inhibitory activity at 2-fold, 4-fold, 8-fold and 16-fold higher concentrations than that of polyoxin D were given the values of 4, 3, 2 and 1, respectively. On the other hand, compounds having the inhibitory activity at ½, ¼ and ⅛ lower concentrations than that of polyoxin D were given the values of 6, 7 and 8, respectively.

[2] = target: T2, chitin synthase 1 of Candida albicans chs2 Δ chs 3 Δ (Candida albicans, UniProt P23316); test: In vitro enzyme assay for chitin synthase 1 of Candida albicans (enzyme 1); assay type: biochemical; conditions: relative to polyoxin D (50% inhibitory activity = value 5)
T2 construct: Crude enzyme was prepared using the Candida albicans chs2 Δ chs 3 Δ mutant; endogenous in cells; host or cells: Candida albicans chs2Δ/chs2Δ chs3Δ/chs3Δ mutant; 130,000 x g membrane pellet
Experimental: Crude enzyme was prepared using the Candida albicans chs2 Δ chs 3 Δ mutant (chs2 Δ::hisG/chs2 Δ::hisG chs3 Δ::hisG/chs3 Δ::hisG) strain, which can only produce the chitin synthase 1. The strain was inoculated with the SDA (Sabouraud dextrose agar) culture medium (4% dextrose, 1% peptone, pH 5.6) and cultured at 30° C. for 15-17 hours until the absorbance at 550nm reaches 0.7. The cells were collected and suspended in a 50 mM Tris-HCl (pH 7.5) buffer solution containing 5 mM magnesium acetate. After centrifugation at 8,000×g for 10 minutes, the pellets were suspended in the same Tris-HCl buffer solution. The suspension was divided into aliquots in 50 mL conical test tubes. After adding glass beads, the cells were disrupted by vigorously vortexing with an interval of 30 seconds. The cell residues were removed by centrifuging at 3,000×g for 5 minutes. The supernatant was ultra-centrifuged at 130,000×g for 1 hour. The resultant pellets were collected and suspended in 50 mM Tris-HCl (pH 7.5) containing 33% glycerol, to a final volume of 1.6 mg/g (wet weight) of yeast used. The suspension was divided into aliquots and kept at −70° C. until it is used.
as §1, §2, §3, §4

T2 sequence (P23316 whole entry, stated change not applied): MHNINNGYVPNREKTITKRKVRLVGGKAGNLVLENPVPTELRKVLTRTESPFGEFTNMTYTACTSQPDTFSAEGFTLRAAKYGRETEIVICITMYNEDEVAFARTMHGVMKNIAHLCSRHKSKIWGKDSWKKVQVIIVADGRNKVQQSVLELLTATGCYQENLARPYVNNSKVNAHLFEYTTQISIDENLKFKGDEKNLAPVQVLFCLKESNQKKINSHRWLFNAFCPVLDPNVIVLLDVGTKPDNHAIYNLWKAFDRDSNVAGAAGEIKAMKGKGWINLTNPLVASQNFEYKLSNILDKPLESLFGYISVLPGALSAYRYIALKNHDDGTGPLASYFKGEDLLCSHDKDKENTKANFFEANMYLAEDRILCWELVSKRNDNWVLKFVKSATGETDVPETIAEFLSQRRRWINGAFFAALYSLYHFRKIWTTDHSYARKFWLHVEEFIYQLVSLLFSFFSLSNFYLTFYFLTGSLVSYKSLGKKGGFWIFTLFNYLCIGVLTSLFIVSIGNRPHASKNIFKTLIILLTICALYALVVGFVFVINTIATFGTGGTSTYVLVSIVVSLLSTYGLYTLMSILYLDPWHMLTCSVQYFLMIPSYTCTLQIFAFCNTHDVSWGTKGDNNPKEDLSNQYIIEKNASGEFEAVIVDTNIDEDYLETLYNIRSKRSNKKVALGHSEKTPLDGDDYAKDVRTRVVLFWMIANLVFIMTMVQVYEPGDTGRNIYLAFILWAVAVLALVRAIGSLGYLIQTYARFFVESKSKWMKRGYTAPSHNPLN
T1 sequence (P14180 whole entry): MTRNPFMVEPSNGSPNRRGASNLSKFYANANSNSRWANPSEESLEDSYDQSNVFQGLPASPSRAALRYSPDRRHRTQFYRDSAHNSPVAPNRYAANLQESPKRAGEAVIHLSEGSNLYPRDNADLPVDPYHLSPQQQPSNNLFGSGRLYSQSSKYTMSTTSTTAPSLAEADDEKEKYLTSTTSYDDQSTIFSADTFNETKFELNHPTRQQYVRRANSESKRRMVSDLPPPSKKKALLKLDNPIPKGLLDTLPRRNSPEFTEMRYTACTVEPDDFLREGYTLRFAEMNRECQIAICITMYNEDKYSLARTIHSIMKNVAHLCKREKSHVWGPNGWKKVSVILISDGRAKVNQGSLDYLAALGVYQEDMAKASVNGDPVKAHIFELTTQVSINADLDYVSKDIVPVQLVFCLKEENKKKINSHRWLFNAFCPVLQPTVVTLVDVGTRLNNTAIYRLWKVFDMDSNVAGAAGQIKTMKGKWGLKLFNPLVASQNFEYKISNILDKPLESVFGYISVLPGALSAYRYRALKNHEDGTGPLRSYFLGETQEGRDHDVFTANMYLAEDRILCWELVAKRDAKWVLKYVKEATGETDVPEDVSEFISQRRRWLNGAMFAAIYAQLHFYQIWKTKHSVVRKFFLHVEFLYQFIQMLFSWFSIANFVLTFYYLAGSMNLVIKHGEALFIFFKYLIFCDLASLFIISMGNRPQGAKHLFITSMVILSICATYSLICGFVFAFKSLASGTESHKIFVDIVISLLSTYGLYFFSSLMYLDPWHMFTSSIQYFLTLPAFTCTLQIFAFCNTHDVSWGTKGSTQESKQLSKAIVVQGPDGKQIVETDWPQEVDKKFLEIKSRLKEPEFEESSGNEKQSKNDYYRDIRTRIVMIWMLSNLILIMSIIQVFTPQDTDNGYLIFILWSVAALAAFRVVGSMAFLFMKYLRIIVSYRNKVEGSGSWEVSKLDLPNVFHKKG

| Substance | Relative activity Enzyme 2 [1] | Relative activity Enzyme 1 [2] |
| --- | --- | --- |
| 13-(3,4,5-Trifluorobenzyl)-9-O-butylberberrubine iodide [Compound No. 27] | 6 (compounds having the inhibitory activity at ½, ¼ and ⅛ lower concentrations than that of polyoxin D were given the values of 6, 7 and 8, respectively) | 3 (Compounds having the inhibitory activity at 2-fold, 4-fold, 8-fold and 16-fold higher concentrations than that of polyoxin D were given the values of 4, 3, 2 and 1, respectively) |
| 13-(3,4,5-Trifluorobenzyl)-9-O-hexylberberrubine chloride [Compound No. 60] | 5 (A compound having the same inhibitory activity as that of polyoxin D at the same concentration was given the value 5) | 2 (Compounds having the inhibitory activity at 2-fold, 4-fold, 8-fold and 16-fold higher concentrations than that of polyoxin D were given the values of 4, 3, 2 and 1, respectively) |
| 13-(3,4,5-Trifluorobenzyl)-9-O-hexylberberrubine iodide [Compound No. 28] | 5 (A compound having the same inhibitory activity as that of polyoxin D at the same concentration was given the value 5) | 2 (Compounds having the inhibitory activity at 2-fold, 4-fold, 8-fold and 16-fold higher concentrations than that of polyoxin D were given the values of 4, 3, 2 and 1, respectively) |
| 13-(3,4,5-Trifluorobenzyl)berberrubine [Compound No. 1] | 3 (Compounds having the inhibitory activity at 2-fold, 4-fold, 8-fold and 16-fold higher concentrations than that of polyoxin D were given the values of 4, 3, 2 and 1, respectively) | 1 (Compounds having the inhibitory activity at 2-fold, 4-fold, 8-fold and 16-fold higher concentrations than that of polyoxin D were given the values of 4, 3, 2 and 1, respectively) |
| 13-(3,4,5-Trimethoxybenzyl)-9-O-butylberberrubine chloride [Compound No. 62] | 5 (A compound having the same inhibitory activity as that of polyoxin D at the same concentration was given the value 5) | 2 (Compounds having the inhibitory activity at 2-fold, 4-fold, 8-fold and 16-fold higher concentrations than that of polyoxin D were given the values of 4, 3, 2 and 1, respectively) |
| 13-(3,4,5-Trimethoxybenzyl)-9-O-hexylberberrubine chloride [Compound No. 63] | 4 (Compounds having the inhibitory activity at 2-fold, 4-fold, 8-fold and 16-fold higher concentrations than that of polyoxin D were given the values of 4, 3, 2 and 1, respectively) | 2 (Compounds having the inhibitory activity at 2-fold, 4-fold, 8-fold and 16-fold higher concentrations than that of polyoxin D were given the values of 4, 3, 2 and 1, respectively) |
| 13-(3,4,5-Trimethoxybenzyl)-9-O-hexylberberrubine iodide [Compound No. 31] | 4 (Compounds having the inhibitory activity at 2-fold, 4-fold, 8-fold and 16-fold higher concentrations than that of polyoxin D were given the values of 4, 3, 2 and 1, respectively) | 2 (Compounds having the inhibitory activity at 2-fold, 4-fold, 8-fold and 16-fold higher concentrations than that of polyoxin D were given the values of 4, 3, 2 and 1, respectively) |
| 13-(3,4,5-Trimethoxybenzyl)berberrubine [Compound No. 2] | 3 (Compounds having the inhibitory activity at 2-fold, 4-fold, 8-fold and 16-fold higher concentrations than that of polyoxin D were given the values of 4, 3, 2 and 1, respectively) | 1 (Compounds having the inhibitory activity at 2-fold, 4-fold, 8-fold and 16-fold higher concentrations than that of polyoxin D were given the values of 4, 3, 2 and 1, respectively) |
| 13-(3,4,5-trifluorobenzyl)-9-O-butylberberrubine chloride [Compound No. 59] | 5 (A compound having the same inhibitory activity as that of polyoxin D at the same concentration was given the value 5) | 3 (Compounds having the inhibitory activity at 2-fold, 4-fold, 8-fold and 16-fold higher concentrations than that of polyoxin D were given the values of 4, 3, 2 and 1, respectively) |
| 13-(3,4,5-trimethoxybenzyl)-9-O-butylberberrubine iodide [Compound No. 30] | 5 (A compound having the same inhibitory activity as that of polyoxin D at the same concentration was given the value 5) | 2 (Compounds having the inhibitory activity at 2-fold, 4-fold, 8-fold and 16-fold higher concentrations than that of polyoxin D were given the values of 4, 3, 2 and 1, respectively) |
| 13-(4-Isopropylbenzyl)berberrubine [Compound No. 6] | 4 (Compounds having the inhibitory activity at 2-fold, 4-fold, 8-fold and 16-fold higher concentrations than that of polyoxin D were given the values of 4, 3, 2 and 1, respectively) | 2 (Compounds having the inhibitory activity at 2-fold, 4-fold, 8-fold and 16-fold higher concentrations than that of polyoxin D were given the values of 4, 3, 2 and 1, respectively) |
| 13-(4-Trifluoromethoxybenzyl)-9-O-butylberberrubine chloride [Compound No. 65] | 6 (compounds having the inhibitory activity at ½, ¼ and ⅛ lower concentrations than that of polyoxin D were given the values of 6, 7 and 8, respectively) | 3 (Compounds having the inhibitory activity at 2-fold, 4-fold, 8-fold and 16-fold higher concentrations than that of polyoxin D were given the values of 4, 3, 2 and 1, respectively) |
| 13-(4-Trifluoromethoxybenzyl)-9-O-butylberberrubine iodide [Compound No. 33] | 6 (compounds having the inhibitory activity at ½, ¼ and ⅛ lower concentrations than that of polyoxin D were given the values of 6, 7 and 8, respectively) | 3 (Compounds having the inhibitory activity at 2-fold, 4-fold, 8-fold and 16-fold higher concentrations than that of polyoxin D were given the values of 4, 3, 2 and 1, respectively) |
| 13-(4-Trifluoromethoxybenzyl)-9-O-hexylberberrubine chloride [Compound No. 66] | 5 (A compound having the same inhibitory activity as that of polyoxin D at the same concentration was given the value 5) | 2 (Compounds having the inhibitory activity at 2-fold, 4-fold, 8-fold and 16-fold higher concentrations than that of polyoxin D were given the values of 4, 3, 2 and 1, respectively) |
| 13-(4-Trifluoromethoxybenzyl)-9-O-hexylberberrubine iodide [Compound No. 34] | 5 (A compound having the same inhibitory activity as that of polyoxin D at the same concentration was given the value 5) | 2 (Compounds having the inhibitory activity at 2-fold, 4-fold, 8-fold and 16-fold higher concentrations than that of polyoxin D were given the values of 4, 3, 2 and 1, respectively) |
